Values of other authors as cited in US7205435B2 (priority 2001, dated 2007).

System: mouse phrenic nerve
Conditions: in vivo

CC(C)C[C@H](NP(=O)(O)O[C@@H]1O[C@@H](C)[C@H](O)[C@@H](O)[C@H]1O)C(=O)N[C@@H](Cc1c[nH]c2ccccc12)C(=O)O [phosphoramidon]
effective dose: 0.2 mM
